A short description of this data set: Human HepG2 cell viability assay in 384 well format. It is filed as toxicity, cell-based. Set-up: dose 125 nL, time 70.5 hour; cytotoxicity at 70.5 h: concentration not given beside the values. To be noted: HepG2 cells, read-out: Inhibition.

For `COCCN1C[C@H]2[C@@H](C1)N(Cc1ccc(C)o1)CC[C@H]2OC`, the cytotoxicity at 70.5 h was -5.94%.

Regarding `CCN1CC2(CC1=O)CN(C(C)=O)CCN(C(=O)c1ccco1)C2` (stereo unspecified), the cytotoxicity at 70.5 h was -9.45%. The figure for `Cc1csc(CN2CC[C@H]3C[C@H](c4nnc(C)[nH]4)O[C@@H]3C2)n1` is 20.1%; for `CCOCC1CN(Cc2ccoc2)Cc2ncn(CC3CC3)c21` (stereo unspecified) it is 5.39%.

Regarding `COCCO[C@H]1CCN(C(=O)c2ccno2)[C@H]1Cc1cnn(C)c1`, the cytotoxicity at 70.5 h was -0.314%. On to `CCN1CC2(CC1=O)CN(Cc1cccs1)CCN(C(=O)C(C)C)C2` (stereo unspecified), for which the cytotoxicity at 70.5 h turned out to be 2.16%. The figure for `COCCN1C[C@@H]2CN(c3ncccn3)C[C@@H]2C1=O` is -7.68%; for `CNC(=O)N1CC[C@H]2N(C)CC[C@@]2(C(=O)Nc2ccccc2)CC1` it is -4.01%; for `O=C(C1CCOCC1)N1CCO[C@H]2[C@@H](OCc3ccncc3)CC[C@@H]21` it is -4.02%. The value for `Cc1noc([C@H]2COC[C@H]3CN(C(=O)Cc4ccc(F)cc4)C[C@H]32)n1` was -2.96%; that for `CCC1=N[C@@]2(CC[C@@H]3CN(C(=O)Nc4ccc(F)cc4)C[C@@H]32)C(=O)N1` was 0.571%. The figure for `CCN1CCC2(CC1)CC(Nc1ncccn1)CO2` (stereo unspecified) is -1.36%; for `O=C(c1ccncc1F)N1CCN(CC2CC2)c2ncccc2C1` it is 24.5%; for `COCCN1CCN(C(=O)c2ccncc2F)Cc2cccnc21` it is -12.3%.

In the case of `CC(C)CS(=O)(=O)N1C[C@H]2C[C@H](C(=O)NCc3ccccc3)[C@@H](C1)O2`, the cytotoxicity at 70.5 h was -7.71%.

As for `CCN1C[C@H]2CCN(C(=O)NC3CCCC3)CC[C@H]2S1(=O)=O`, the cytotoxicity at 70.5 h amounted to 12.8%. The value for `Cc1nc(N2CCCC2)nc2c1CCN(C(=O)C1CCCC1)CC2` was -9.52%; that for `O=C(N[C@H]1CN[C@H]2CCCO[C@H]21)c1cscn1` was -4.74%; that for `CN(C)C(=O)N1C[C@@H]2CCCO[C@@H]2[C@H](N(C)Cc2ccco2)C1` was -11.5%. The figure for `CCOCC1CN(Cc2ccoc2)Cc2nn(CC3CC3)cc21` (stereo unspecified) is 5.44%. With `CCN1CC2(CC1=O)CN(Cc1cnn(C)c1)CCN(C(C)=O)C2` (stereo unspecified), the cytotoxicity at 70.5 h is -0.943%.

With `O=C1COC2(CCN(Cc3ccc(F)cc3)CC2)CN1`, the cytotoxicity at 70.5 h was determined as 3.53%. As for `CCN1CCC(c2nc3ccc(NC(C)C)cn3n2)CC1`, the cytotoxicity at 70.5 h is -0.678%.

Regarding `CCn1nnc2c1C(COC)CN(Cc1cccs1)C2` (stereo unspecified), the cytotoxicity at 70.5 h is 1.81%. The value for `CCCS(=O)(=O)N1CCC2(CC1)CN(c1ccccn1)CCO2` was 23.8%; that for `O=C(C[C@@H]1COC[C@H]2CN(Cc3ccc(F)cc3)C[C@@H]12)N1CCOCC1` was 21.2%. Consider `COc1ccc(CN2CC[C@@H](O)[C@@H]2Cc2ccccc2)cc1`, for which the cytotoxicity at 70.5 h was 38.7%.

For `O=C(N1CCOCC1)[C@@]12CCO[C@@H]1CCN(CC1CCCCC1)C2`, the cytotoxicity at 70.5 h came to 27.8%. The value for `Cc1ccc(CN2CCC3(CC2)OC(C(=O)N(C)C)c2ccccc23)o1` (stereo unspecified) was -13.3%. The value for `O=C(c1ccco1)N1CCOCC2(CCN(C3CCOCC3)C2)C1` (stereo unspecified) was -8.45%; that for `O=C(N1CCOCC1)[C@@]12CCO[C@@H]1CCN(Cc1ccccc1F)C2` was -9.82%; that for `c1cncc(CO[C@H]2CC[C@H]3[C@@H]2OCCN3C2CCOCC2)c1` was -2.22%. The figure for `Cc1csc(CN2CCC[C@]3(C[C@H](Oc4ccccn4)CO3)C2)n1` is 16%; for `Cc1nc(CN2CCOCC3(CCN(c4cccnc4)CC3)C2)cs1` it is 2.23%. `COCC1c2c(cnn2C)CCN1Cc1ccc(F)cc1` (stereo unspecified): the cytotoxicity at 70.5 h was -0.871%. For `COCCN1C[C@@H]2[C@@H](OC)CCN(Cc3cccc(C)n3)[C@@H]2C1`, the cytotoxicity at 70.5 h is -8.62%.

(Values after ChEMBL document CHEMBL3507680, “University of Dundee, Gates Library screen for HepG2 cell viability”.)
